The test system of experiment [1] is GLP-1. To be noted: direct colonic delivery, rodents; cited from earlier work.
Experiment [2] concerns ob/ob mice. Nature of the experiment: Oral glucose (2 g/kg) tolerance test after 5 weeks treatment in ob/ob mice. It counts as in vivo, mouse. To be noted: for Plasma glucose AUC (0-120 min) / Plasma glucose, 0 min / Plasma glucose, 15 min / Plasma glucose, 30 min / Plasma glucose, 45 min / Plasma glucose, 60 min / Plasma glucose, 120 min: OGTT 2 g/kg, mean. On the procedure: (§1) Mice were fed a standard low-fat (7% w/w fat) diet. After 4-weeks, the mice were fasted for 4 hours and the effects of Compound A were assessed. Assessment of the effects of Compound A included basal levels of blood glucose, plasma insulin, HbA1c levels, and homeostatic model assessment of insulin resistance (HOMA-IR). HOMA-IR is an assessment of insulin resistance and is calculated by the following formula: fasting insulin (micro U/L)×fasting glucose […]/22.5.
After 5 weeks, an oral glucose (2 g/kg) tolerance test was performed after a 4 hour fast.

Experiment [3] relates to active GLP-1. Nature of the experiment: Active GLP-1 during oral glucose tolerance test (OGTT) and at 24 h in lean male SPD rats. It counts as in vivo, rat. On the procedure: (§2) To establish the acute effects of oral administration of Compound A and Compound B upon active GLP-1 and insulin concentrations, lean (about 300 g) male Sprague-Dawley (SPD) rats were divided into groups (n=6-8) and fed 74 and 84 mg/kg body weight of Compound A or Compound B respectively, either with or without concurrent administration of a dipeptidyl peptidase 4 (DPP-4) inhibitor 60 minutes prior to an oral glucose tolerance test (OGTT) as outlined below. Parallel groups receiving either corn oil alone (corn oil+vehicle, n=10) or corn oil and a DPP-4 inhibitor (“DPP-4 i”) (corn oil+ (DPP-4 i), n=10) were included as controls. The DPP-4 inhibitor was linagliptin.
(§3) A second oral dose of 74 and 84 mg/kg bodyweight of Compound A or Compound B respectively was administered at 240 minutes and ad lib feeding was initiated. A second dose of DPP-4 inhibitor was administered at 480 mins prior to lights out. Blood samples were collected at 24 h for measurement of active GLP-1 and insulin. All values are mean, figures depict mean values (SEM).

Experiment [4] has as its system ob/ob mice. Nature of the experiment: Glucose tolerance after 21-day treatment in high-fat diet fed ob/ob mice. To be noted: 112 mg/kg once-daily via diet, 21 days. It counts as in vivo, mouse. How it is done: This study was carried out to assess the effects of chronic treatment with Compound B or Compound A on glucose tolerance in a T2DM rodent model.
For assessing the effects of Compound A, ob/ob mice were fed a high-fat diet (comprising 2% cholesterol, 40% fat (containing 18% trans-fatty acids), 20% fructose) for 15 weeks starting at age 5 weeks. […] After 21 days the mice received a 2 g/kg oral glucose load. After the oral glucose load, plasma glucose was measured at multiple time points from 0-240 minutes.

Experiment [5] deals with atherogenic lipids. To be noted: APOE*3.CETP mice; cited from earlier work.
Experiment [6] concerns atherogenic lipids. The following applies: humans; cited from earlier work.
Experiment [7] relates to ob/ob mice. Nature of the experiment: Chronic treatment in ob/ob mice: basal parameters after 4 weeks. It counts as in vivo, mouse. To be noted: 4 weeks diet admix, 4 h fast, Compound A 135, fenofibrate 100, pioglitazone 30 mg/kg bw/d, mean ± SEM; for Plasma adiponectin: control 4.3 ± 0.4; for Blood HbA1c: control 8.4 ± 0.4; for HOMA-IR: control 65.7 ± 9.8; for Plasma insulin: control 73.2 ± 13.6; for Plasma ALT: control 271.4 ± 18.8; for Blood glucose: control 380.8 ± 26.3. How it is done: as §1

Experiment [8] concerns plasma insulin. Nature of the experiment: Plasma insulin at 24 h in lean male SPD rats. It counts as in vivo, rat. To be noted: Compound A 74 mg/kg or Compound B 84 mg/kg oral, non-significant. On the procedure: as §2, §3
[9] abbreviates: 15 mg/kg bw/d diet admix 5 weeks.
[10] abbreviates: 45 mg/kg bw/d diet admix 5 weeks.
Where [11] appears, read: 135 mg/kg bw/d diet admix 5 weeks.
The mark [12] stands for this setting: reference drugs: fenofibrate 100, pioglitazone 30 mg/kg bw/d diet admix 5 weeks.

Like-named read-outs stand apart in the source and are kept apart here.

Take `CC/C=C\C/C=C\C/C=C\C/C=C\C/C=C\C/C=C\CCC(=O)O` [DHA]: the GLP-1 secretion result in experiment [1] was “able to induce GLP-1 secretion”.

Turning to `CC/C=C\C/C=C\C/C=C\C/C=C\C/C=C\CCCCOC(CC)C(=O)O` (centres unmarked) [Compound A, 2-(((5Z,8Z,11Z,14Z,17Z)-icosa-5,8,11,14,17-pentaen-1-yl)oxy)butanoic acid], in experiment [2] (setting [9]), the Plasma glucose AUC (0-120 min) turned out to be 1760 mM·min; the “Plasma glucose, 0 min” value is reported as 11.4 mM; the “Plasma glucose, 15 min” value was found to be 37.5 mM; the “Plasma glucose, 30 min” value was determined as 34.4 mM. In experiment [2] (setting [9]), the “Plasma glucose, 45 min” value came out at 28.0 mM; the “Plasma glucose, 60 min” value was determined as 25.5 mM; the “Plasma glucose, 120 min” value is listed as 19.6 mM. Moreover, in experiment [2] (setting [10]), the Plasma glucose AUC (0-120 min) worked out at 1110 mM·min; the “Plasma glucose, 0 min” value came to 13.3 mM; the “Plasma glucose, 15 min” value came to 36.5 mM; the “Plasma glucose, 30 min” value worked out at 30.1 mM. In experiment [2] (setting [10]), the “Plasma glucose, 45 min” value is listed as 24.5 mM; the “Plasma glucose, 60 min” value worked out at 21.0 mM; the “Plasma glucose, 120 min” value is 15.3 mM. Further, in experiment [2] (setting [11]), the Plasma glucose AUC (0-120 min) was found to be 816 mM·min; the “Plasma glucose, 0 min” value is on record as 9.2 mM; the “Plasma glucose, 15 min” value amounted to 27.7 mM; the “Plasma glucose, 30 min” value is reported as 22.1 mM. In experiment [2] (setting [11]), the “Plasma glucose, 45 min” value turned out to be 14.6 mM; the “Plasma glucose, 60 min” value is on record as 13.4 mM; the “Plasma glucose, 120 min” value is on record as 12.8 mM. The “Lowering of glucose levels in oral glucose tolerance test” value in experiment [2] (15, 45, 135 mg/kg bw/d diet admix 5 weeks) was “dose-dependent response in lowering glucose levels”. In addition, the “Effect on active GLP-1 concentration at 24 h versus corn oil+vehicle” value in experiment [3] (in combination with DPP4 inhibitor, Compound A 74 mg/kg or Compound B 84 mg/kg oral, two doses) is “significantly (p<0.05) increased”. Besides, the “Glucose tolerance from 15 minutes through 90 minutes post-glucose load compared to vehicle” value in experiment [4] is recorded as “significantly improved glucose tolerance”. For the same compound, in experiment [4] (p<0.01), the AUC glucose entry is reported as “significantly reduced AUC glucose”. In addition, the “Effect on atherogenic lipids” value in experiment [5] is reported as “significantly reduce atherogenic lipids”. The “Effect on atherogenic lipids” value in experiment [6] was “significantly reduce atherogenic lipids”. In experiment [7], the Plasma adiponectin came out at 3.8 ± 0.4 µg/mL, the “Blood HbA1c” value amounted to 4.5 ± 0.1 %, the HOMA-IR is 8.6 ± 3.6 and the Plasma insulin turned out to be 17.6 ± 6.8 ng/mL. Besides, in experiment [7], the “Plasma ALT” value is 180.6 ± 14.6 U/L and the Blood glucose was 191.5 ± 6.1 mg/dL. Further, the “Increase in plasma insulin concentration at 24 h versus corn oil+vehicle and corn oil+DPP4 inhibitor” value in experiment [8] (compound alone) is reported as 25%. In addition, in experiment [8] (in combination with DPP4 inhibitor), the “Increase in plasma insulin concentration at 24 h versus corn oil+vehicle and corn oil+DPP4 inhibitor” value came to 25%.

Regarding `CC(C)OC(=O)C(C)(C)Oc1ccc(C(=O)c2ccc(Cl)cc2)cc1` [Fenofibrate, fenofibrate, reference compound], in experiment [2] (setting [12]), the Plasma glucose AUC (0-120 min) amounted to 1420 mM·min; the “Plasma glucose, 0 min” value was found to be 15.4 mM; the “Plasma glucose, 15 min” value is recorded as 35.9 mM; the “Plasma glucose, 30 min” value was determined as 35.9 mM. Further, in experiment [2] (setting [12]), the “Plasma glucose, 45 min” value was 30.6 mM and the “Plasma glucose, 60 min” value is reported as 28.2 mM. In experiment [7], the Plasma adiponectin is 5.0 ± 0.4 µg/mL, the “Blood HbA1c” value came out at 4.8 ± 0.2 %, the HOMA-IR was found to be 20.3 ± 5.9 and the Plasma insulin worked out at 35.5 ± 9.0 ng/mL. In experiment [7], the “Plasma ALT” value came to 224.0 ± 27.4 U/L and the Blood glucose worked out at 220.3 ± 8.1 mg/dL.

As to `CCc1ccc(CCOc2ccc(CC3SC(=O)NC3=O)cc2)nc1` (centres unmarked) [Pioglitazone, pioglitazone, reference compound], in experiment [2] (setting [12]), the Plasma glucose AUC (0-120 min) is 879 mM·min; the “Plasma glucose, 0 min” value is 7.8 mM; the “Plasma glucose, 15 min” value is 24.2 mM; the “Plasma glucose, 30 min” value stood at 18.5 mM. Besides, in experiment [2] (setting [12]), the “Plasma glucose, 45 min” value is reported as 17.3 mM; the “Plasma glucose, 60 min” value is given as 15.2 mM; the “Plasma glucose, 120 min” value was 10.9 mM. Moreover, in experiment [7], the “Blood HbA1c” value is recorded as 3.8 ± 0.1 %, the HOMA-IR came out at 2.1 ± 0.3, the Plasma insulin is recorded as 5.7 ± 0.8 ng/mL and the “Plasma ALT” value turned out to be 257.3 ± 15.5 U/L. The compound further displayed a Blood glucose in experiment [7] of 147.5 ± 3.1 mg/dL.

As for `CC#CCn1c(N2CCC[C@@H](N)C2)nc2c1c(=O)n(Cc1nc(C)c3ccccc3n1)c(=O)n2C` [DPP4 inhibitor, linagliptin, reference compound], the “Effect on active GLP-1 concentration at 24 h” value in experiment [3] (corn oil+DPP4 inhibitor alone) is “no significant effect”. Besides, the “Effect on active GLP-1 (AUC 0-60 mins) versus corn oil alone” value in experiment [3] (corn oil+DPP4 inhibitor alone, OGTT) was “no significant effect”.

(Values after patent publication US20260000632A1, “STRUCTURALLY MODIFIED FATTY ACIDS FOR IMPROVING GLYCEMIC CONTROL AND TREATING INFLAMMATORY BOWEL DISEASE” (Northsea Therapeutics B.V., priority 2018, published 2026).)
